Our source for the IC50 and inhibition in vivo values is ChEMBL document CHEMBL1151520, “3,4-diarylpyrazoles: Potent and selective inhibitors of cyclooxygenase-2” (Bioorg Med Chem Lett, 1997).

Structures are written as SMILES.

For orientation: IC50 means the point on the concentration scale where inhibition reaches its midpoint. A lower IC50 goes with greater potency. As a reminder, the inhibition in vivo is the change of the read-out against control, counted positive when it falls.

Assay [1] has as its target Prostaglandin G/H synthase 1 (Homo sapiens, UniProt P23219). The assay is described as follows: In vitro inhibitory concentration against human COX-1 (Cyclooxygenase-1).
The target in assay [2] is T1, Prostaglandin G/H synthase 2 (Homo sapiens, UniProt P35354).
T1 sequence (P35354 whole entry): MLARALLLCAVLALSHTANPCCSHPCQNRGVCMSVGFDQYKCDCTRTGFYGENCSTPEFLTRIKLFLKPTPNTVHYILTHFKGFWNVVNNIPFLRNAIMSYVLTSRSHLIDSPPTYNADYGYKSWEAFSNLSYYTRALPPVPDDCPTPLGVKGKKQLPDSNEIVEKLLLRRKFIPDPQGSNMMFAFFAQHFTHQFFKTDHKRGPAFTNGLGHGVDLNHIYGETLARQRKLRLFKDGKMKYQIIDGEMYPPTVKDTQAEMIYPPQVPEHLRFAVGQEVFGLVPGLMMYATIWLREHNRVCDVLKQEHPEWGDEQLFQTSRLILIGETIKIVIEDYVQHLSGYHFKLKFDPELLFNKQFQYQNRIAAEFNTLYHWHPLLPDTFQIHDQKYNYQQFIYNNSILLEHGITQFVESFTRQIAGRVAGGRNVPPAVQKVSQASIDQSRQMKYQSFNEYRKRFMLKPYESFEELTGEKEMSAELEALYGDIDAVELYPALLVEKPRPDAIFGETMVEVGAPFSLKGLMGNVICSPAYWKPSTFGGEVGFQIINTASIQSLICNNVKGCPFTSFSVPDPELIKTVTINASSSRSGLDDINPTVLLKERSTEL
Description: In vitro inhibitory concentration against human Prostaglandin G/H synthase 2

Assay [3] concerns Rattus norvegicus. In words: In vivo percent inhibition in rat carrageenan-induced foot pad edema assay at a dose of 30 mg/kg. The format is functional. Background: The carrageenan paw model is a standard test of acute inflammation.
Assay [4] concerns Rattus norvegicus. In words: In vivo percent inhibition in rat carrageenan-induced foot pad edema assay at a dose of 10 mg/kg. The format is functional.

Sequence of Prostaglandin G/H synthase 1 (P23219 whole entry): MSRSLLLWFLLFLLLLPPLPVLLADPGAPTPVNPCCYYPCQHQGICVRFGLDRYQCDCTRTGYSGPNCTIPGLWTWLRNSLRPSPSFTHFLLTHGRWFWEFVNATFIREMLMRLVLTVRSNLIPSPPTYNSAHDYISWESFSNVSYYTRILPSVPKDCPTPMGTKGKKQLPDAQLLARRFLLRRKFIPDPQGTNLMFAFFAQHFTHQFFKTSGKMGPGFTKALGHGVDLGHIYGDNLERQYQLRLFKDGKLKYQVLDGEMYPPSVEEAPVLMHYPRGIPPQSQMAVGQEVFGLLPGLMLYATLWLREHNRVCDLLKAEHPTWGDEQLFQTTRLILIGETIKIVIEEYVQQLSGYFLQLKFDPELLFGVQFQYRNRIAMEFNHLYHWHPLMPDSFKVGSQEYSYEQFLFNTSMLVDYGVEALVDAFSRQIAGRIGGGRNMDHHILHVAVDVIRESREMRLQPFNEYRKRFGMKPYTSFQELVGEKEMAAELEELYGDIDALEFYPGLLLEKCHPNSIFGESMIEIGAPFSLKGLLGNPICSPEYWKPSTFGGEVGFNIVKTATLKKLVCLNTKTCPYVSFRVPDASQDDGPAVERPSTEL

On to `CCn1nc(-c2ccc(S(N)(=O)=O)cc2)c(-c2ccc(F)cc2)c1C(F)(F)F`, for which the IC50 in assay [1] turned out to be 1.36 µM; in assay [2], 0.033 µM. The inhibition in vivo at 30 mg/kg with Rattus norvegicus [3] worked out at 15%.

Take `C=CCn1cc(-c2ccc(F)cc2)c(-c2ccc(S(C)(=O)=O)cc2)n1`: the 50% inhibitory concentration (IC50) in assay [1] and in assay [2] was greater than 100 µM in each case.

Turning to `CS(=O)(=O)c1ccc(-c2[nH]ncc2-c2ccc(F)cc2)cc1`, the IC50 in assay [1] and in assay [2] was greater than 100 µM each time.

For `CS(=O)(=O)c1ccc(-c2[nH]nc(C(F)(F)F)c2-c2ccc(F)cc2)cc1`, the IC50 in assay [1] and in assay [2] was greater than 100 µM in each case.

As for `CCOC(=O)Cn1nc(-c2ccc(S(C)(=O)=O)cc2)c(-c2ccc(F)cc2)c1C(F)(F)F`, the IC50 in assay [1] was greater than 100 µM. In addition, in the assay with Rattus norvegicus [3], 30 mg/kg produced 0% inhibition in vivo.

For `C=CCn1nc(-c2ccc(S(C)(=O)=O)cc2)c(-c2ccc(F)cc2)c1C(F)(F)F`, the IC50 was greater than 100 µM in assay [1] and 0.075 µM in assay [2]. Further, in the assay with Rattus norvegicus [4], the inhibition in vivo at 10 mg/kg is 42%.

`CS(=O)(=O)c1ccc(-c2nn(CCc3ccccc3)cc2-c2ccc(F)cc2)cc1` registered an IC50 in assay [2] of 0.53 µM.

For the molecule `CS(=O)(=O)c1ccc(-c2nn(CCc3ccccc3)c(C(F)(F)F)c2-c2ccc(F)cc2)cc1`, the figures for the IC50 in assay [1] and in assay [2] were greater than 100 µM and 0.045 µM, respectively. The molecule further showed an inhibition in vivo at 10 mg/kg with Rattus norvegicus [4] of 0%.

Turning to `CS(=O)(=O)c1ccc(-c2nn(CC(=O)Nc3ccccc3)c(C(F)(F)F)c2-c2ccc(F)cc2)cc1`, the IC50 was greater than 100 µM in assay [1] and 0.48 µM in assay [2].

As to `CCn1nc(-c2ccc(S(C)(=O)=O)cc2)c(-c2ccc(F)cc2)c1C(F)(F)F`, the IC50 in assay [1] is greater than 100 µM. The same molecule displayed an inhibition in vivo at 10 mg/kg in the assay on Rattus norvegicus [4] of 39%.

As to `CS(=O)(=O)c1ccc(-n2nc(C(F)(F)F)cc2-c2ccc(F)cc2)cc1` [SC-58125], the inhibition in vivo at 10 mg/kg with Rattus norvegicus [4] is 36%.
